120 molecules from a melting point compilation (Tetko et al.) can be followed below.

Bounds are passed on as bounds.

The melting point is the temperature of the solid-liquid transition. Consider `COC(=O)c1ccc(F)cc1S`, for which the melting point was in the range of 41 to 43 °C.

The molecule `CCOC(=O)c1ncccc1N` yielded a melting point of 127 to 129 °C. Molecule `O=C(Nc1ccc(C(=O)O)c(O)c1)c1ccc(Cl)c(Cl)c1` had a melting point of 272 to 274 °C. Take `COC(=O)CNC(=O)Cc1ccc(N)cc1`: the melting point lay in the range of 93 to 95 °C. The value for `CC1=NN(c2ccc(Cl)nn2)C(=O)C1` was 229 to 231 °C; that for `COCCn1nnnc1N` was 114 to 116 °C; that for `CC(=O)c1cc2c(cc1[N+](=O)[O-])OCO2` was 121 to 123 °C. Under `CC(=O)NCCc1ccc(C(=O)O)cc1` stands 175 to 177 °C; under `COc1cc(F)c([N+](=O)[O-])cc1OC`, 139 to 141 °C. For `Cc1nc(-c2ccc(N)cc2)co1`, the melting point lay within 112 to 114 °C.

In the case of `CC(C)C(Oc1ccc(F)cc1F)C(=O)O` (stereo not given), the melting point is 67 to 69 °C. The value for `COc1ccc(Cc2nnc(N)s2)cc1` was 174 to 176 °C; that for `CC(Cl)C(=O)N(C)C1CCS(=O)(=O)C1` (stereo not given) was 106 to 108 °C. Consider `Nc1ccc(N2CCOCC2)c(F)c1`, for which the melting point lay in the range of 121 to 123 °C.

Consider `CCN(CC)S(=O)(=O)c1ccc(OC(C)C)c(N)c1`, for which the melting point is 89 to 91 °C. Under `CC(=O)N(c1nc(CCl)cs1)C1CC1` stands 56 to 58 °C. The value for `Nc1cc(-c2ccco2)nn1-c1ccc(Cl)cc1` was 129 to 131 °C; that for `COc1cccc(OC)c1CC(=O)O` was 149 to 151 °C.

For the molecule `O=C(O)C1CC(=O)N(c2ccccc2)C1` (stereo not given), the melting point was 191 to 193 °C. The molecule `CC1CN(C(=O)CCl)CC(C)O1` (stereo not given) registered a melting point of 61 to 63 °C. As to `O=C(O)C1CC1c1ccc(Cl)cc1Cl` (stereo not given), the melting point is 157 to 159 °C. Under `Cc1cc(S(=O)(=O)c2ccc(O)c(C)c2)ccc1O` stands 273 to 276 °C; under `O=C(O)C1CCN(c2ccc(C(F)(F)F)cc2[N+](=O)[O-])CC1`, 141 to 143 °C. As for `CC(Cl)C(=O)Nc1ccc(N2CCCC2=O)cc1` (stereo not given), the melting point is 194 to 196 °C. The value for `Nc1c(Cl)nc2ccccc2c1N` was 178 to 180 °C; that for `N#Cc1cc(C#N)c(S)nc1N` was 280 to 282 °C; that for `CCOC(=O)CSc1nnc(-c2ccco2)o1` was 59 to 61 °C.

Molecule `Clc1ccc2nc(Cl)nc(Cl)c2c1` gave a melting point of 89 to 91 °C.

With `O=C(CCl)NC(=O)OCc1ccccc1`, the melting point was 113 to 115 °C. The value for `CC(Cl)C(=O)NC(c1ccccc1)c1ccccc1` (stereo not given) was 130 to 139 °C; that for `COCCOc1ccc(F)cc1[N+](=O)[O-]` was 54 to 56 °C; that for `c1ccc(CNc2ccc(N3CCOCC3)cc2)nc1` was 132 to 134 °C. The value for `NC(=S)Nc1ccc(Cl)nc1` was 182 to 184 °C; that for `O=C(O)CSCc1ccc(Cl)s1` was 66 to 68 °C; that for `O=C(O)c1ccc(NS(=O)(=O)c2ccccc2)cc1` was 209 to 211 °C. The value for `COc1ccc(N)cc1CO` was 115 to 117 °C; that for `N#Cc1cccc(CN2C(=O)CSC2=O)c1` was 112 to 114 °C. With `Nc1nc2ccc(Oc3ccccc3)cc2s1`, the melting point lay within 159 to 161 °C. Take `O=C(O)c1cnc2ccc(Br)cn2c1=O`: the melting point was 218 to 220 °C. For the molecule `Nc1cccc(CS(=O)(=O)c2ccc(F)cc2F)c1`, the melting point is 97 to 99 °C. For the molecule `Oc1ccc2c(c1)OCCCO2`, the melting point was 97 to 99 °C.

`COC(=O)c1cc(Br)cc(S(N)(=O)=O)c1` returned a melting point of 138 to 140 °C. Under `Clc1ccc2nncn2n1` stands 213 to 215 °C; under `Cc1ccc(-n2nc(C)c(C(=O)O)c2Cl)cc1Cl`, 241 to 243 °C; under `CC(C)C(Nc1ccc(C(F)(F)F)cc1Cl)C(=O)O` (stereo not given), 128 to 132 °C. Under `Cn1cc(C=O)c(-c2ccc3c(c2)OCCCO3)n1` stands 99 to 101 °C; under `O=C(CCl)NCCc1ccc2c(c1)OCCO2`, 72 to 76 °C; under `Cc1nnc(S)n1C1CCCCC1`, 164 to 166 °C.

As for `CC(C)(C)OC(=O)N1CC(=CC(=O)O)C1`, the melting point is 140 to 142 °C. On to `O=C(O)c1cc(S(=O)(=O)N2CCOCC2)c(Cl)cc1Cl`, for which the melting point lay in the range of 183 to 185 °C.

Molecule `CC1(c2cccs2)NC(=O)NC1=O` (stereo not given) returned a melting point of 137 to 139 °C. As for `CNC(=O)c1ccc([N+](=O)[O-])cc1Cl`, the melting point lay in the range of 166 to 168 °C. Turning to `O=C1CCNc2ccccc2N1`, the melting point was in the range of 132 to 134 °C. Under `O=C(O)CNCCO` stands 184 to 186 °C; under `COc1ccc(S(=O)(=O)Cl)c(OC)c1C(=O)O`, 129 to 131 °C; under `CNC(=O)NC(=O)CCl`, 155 to 157 °C. Under `Nc1cccc(NC(=O)Nc2cccc(C(F)(F)F)c2)c1` stands 180 to 182 °C. `CS(=O)(=O)N1CC(C(=O)O)Oc2ccccc21` (stereo not given) returned a melting point of 167 to 169 °C. `CS(=O)(=O)Cc1ccc(C(=O)O)o1`: the melting point is 186 to 188 °C. The value for `CCc1nc(N)sc1C` was 73 to 75 °C. In the case of `FC(F)(F)CNc1ccncc1`, the melting point fell in the range of 157 to 159 °C. Take `CC(C)c1ccc(/C=C(/C(=O)O)c2cccs2)cc1`: the melting point fell in the range of 250 to 252 °C. For `COC(=O)c1cc([N+](=O)[O-])cc(S(C)(=O)=O)c1`, the melting point lay in the range of 134 to 136 °C. Under `Cc1c(C(=O)O)cnn1Cc1ccccc1` stands 172 to 174 °C; under `Nc1nc(-c2cccc(O)c2)cs1`, 151 to 153 °C. Molecule `CCc1ccccc1C(=O)O` registered a melting point of 62 to 66 °C.

Regarding `O=C(O)c1cc(Br)cc2ccccc12`, the melting point fell in the range of 229 to 231 °C.

`CNS(=O)(=O)c1ccc(C#N)cc1` registered a melting point of 128 to 130 °C. Turning to `Nc1ccnc2ccnn12`, the melting point lay in the range of 198 to 200 °C.

Take `O=C(c1ccc2c(c1)CCCN2)N1CCOCC1`: the melting point is 142 to 144 °C. The value for `Nc1nc(C2CC2)c(C(=O)O)s1` was 99 to 101 °C; that for `O=C(O)CNS(=O)(=O)c1c[nH]c2ncccc12` was 273 to 275 °C. In turn, `CCOc1ccc([N+](=O)[O-])cc1C=O` gave a melting point of 66 to 68 °C. Under `Clc1ncnc2c1CCCC2` stands 79 to 81 °C; under `Cc1cccc(C)c1NS(=O)(=O)c1ccc(N)cc1`, 212 to 214 °C; under `O=C(O)c1cccc(NC(=O)C2CC2)c1`, 264 to 266 °C. Under `NC(Cc1ccccc1)(C(=O)O)c1ccccc1` (stereo not given) stands 264 to 266 °C; under `O=S(=O)(c1c[nH]c2ncccc12)N1CCNCC1`, 207 to 209 °C; under `CC(=O)c1oc2ccccc2c1NC(=O)C(C)Cl` (stereo not given), 105 to 107 °C. Under `O=C(O)/C=C/c1cc(Cl)c2c(c1)OCCO2` stands 261 to 263 °C. `CC1(CO)CCN(Cc2ccccc2)CC1`: the melting point lay in the range of 59 to 61 °C.

Regarding `Cc1ccc(S(=O)(=O)NCC2CCCO2)cc1C(=O)O` (stereo not given), the melting point is 160 to 162 °C.

With `O=C(CNCc1ccc(Cl)cc1)Nc1ccccc1F`, the melting point fell in the range of 90 to 92 °C. `O=S(=O)(c1ccc(S)cc1)C(F)(F)F` came in with a melting point of 116 to 118 °C. With `Cc1c(C(=O)NN)oc2ccccc12`, the melting point was in the range of 139 to 141 °C. As to `COC(=O)c1c[nH]c2cccc(F)c12`, the melting point was 159 to 161 °C. Under `O=C(Nc1ccccc1)c1cccc(CCl)c1` stands 123 to 125 °C; under `CCn1c(C)cc(C(=O)O)c1C`, less than 17 °C; under `CC(C)Cc1ccc(C=CC(=O)O)cc1`, 159 to 161 °C. Under `COC(=O)CNc1ncccc1[N+](=O)[O-]` stands 104 to 106 °C. `CC(=CC(=O)O)c1cccc(Cl)c1` returned a melting point of 156 to 158 °C.

For `O=C(CO)N1CCNCC1`, the melting point lay in the range of 69 to 71 °C. Under `Cc1cc(=O)[nH][nH]1` stands 223 to 225 °C. With `COc1ccc(NS(=O)(=O)c2cc(N)ccc2N2CCOCC2)cc1`, the melting point was in the range of 232 to 234 °C. `Cn1nc(Br)c(C(=O)NCC(=O)O)c1N` came in with a melting point of 239 to 241 °C.

On to `CNc1ccc(Br)nc1`, for which the melting point is 57 to 59 °C. The molecule `CCSc1cccc(C(=O)O)c1` displayed a melting point of 95 to 97 °C. Regarding `O=C1NCCc2ccc(F)cc21`, the melting point was in the range of 119 to 121 °C. Under `O=[N+]([O-])c1ccc(CCS(=O)(=O)Cl)cc1` stands 89 to 91 °C; under `OCc1cnns1`, 34 to 36 °C; under `Nc1ccc2c(c1)nc1n2CCCCC1`, 180 to 182 °C.

In turn, `N#Cc1cccc(C(=O)NNC(=O)CCl)c1` came in with a melting point of 199 to 201 °C. Under `CC1CCc2c(sc3nc(C(C)Cl)[nH]c(=O)c23)C1` (stereo not given) stands 248 to 250 °C; under `CC(C)(C)CC(=O)Nc1ccc(CC(=O)O)cc1`, 179 to 181 °C; under `CN(C)c1cccc(Cl)c1C=O`, 26 to 28 °C. The value for `CCOC(=O)c1cnc2ccc(Cl)cn2c1=O` was 137 to 139 °C; that for `O=c1oc2ccccc2c(Cl)c1[N+](=O)[O-]` was 160 to 162 °C. Turning to `O=C1CC2(CCCCC2)C(=O)O1`, the melting point was 54 to 58 °C. Under `O=C(O)c1cc(-c2ccc(Cl)cc2)on1` stands 185 to 187 °C; under `COC(=O)C(NC(c1ccccc1)(c1ccccc1)c1ccccc1)C(C)O` (stereo not given), 115 to 117 °C. Under `CCN(CC)S(=O)(=O)c1ccc(C(C)=O)cc1` stands 81 to 83 °C; under `O=C(O)c1ccc(Nc2ncnc3ccccc23)cc1`, 345 to 347 °C. As for `Nc1n[nH]c2c(Cl)cccc12`, the melting point was 189 to 191 °C.

As for `O=C(O)c1cccc(S(=O)(=O)N2CCCc3ccccc32)c1`, the melting point is 98 to 100 °C.

`O=C(COc1cccc2ccccc12)N1CCNCC1` displayed a melting point of 141 to 143 °C. For the molecule `Cc1nc(Cl)nc(Cl)c1[N+](=O)[O-]`, the melting point fell in the range of 52 to 54 °C. As for `OC(c1cccnc1)C(F)(F)F` (stereo not given), the melting point was 64 to 66 °C. The value for `Cn1cc([N+](=O)[O-])c(C(=O)O)n1` was 162 to 164 °C. Under `CN(C)S(=O)(=O)c1ccc2[nH]c(CO)nc2c1` stands 232 to 234 °C; under `O=C(O)c1ccc(Cl)c(S(=O)(=O)NC2CC2)c1`, 221 to 224 °C.
